Measured values from patent EP4772500A1, “NOVEL ISOXAZOLE COMPOUND AS TM4SF5-SPECIFIC INHIBITOR AND USE THEREOF” (Seoul National University R&DB Foundation, priority 2023, dated 2025).
Values joined by “and” are separate entries in the source; they are usually repeats but may differ in a detail not shown here. Equal values may be shown once.

Legend:
[1] = tested on: SNU449-TM4SF5 cells; test: Cell migration tracking, TM4SF5-expressing cells; format: cell-based, human; details: SNU449-TM4SF5, 2.5, 5.0, or 10.0 µM, 17 hours (FIG. 7)
Experimental: (§1) SNU449-TM4SF5 cells, which were made to express TM4SF5 using a lentivirus in human hepatocellular carcinoma cells SNU449, and SNU449-EV cells, into which a control vector (empty vector, EV) was injected so that TM4SF5 is not expressed, were seeded to a density of 40% in 8-chamber plates (Thermo) coated with 10 µg/ml collagen type 1 (Advanced Biomatrix). Three hours after seeding in a cell culture environment containing 10% FBS (GenDEPOT), DMSO and drugs were treated in the culture medium at the indicated concentrations. After treating with the drugs, the positions of the same moving cells were repeatedly photographed using a microscope every 20 minutes for 17 hours. The cells were photographed using an IX81-ZDC microscope (Olympus) equipped with a UPLSAPO 10X2, NA0.4 Super Apochromatic objective lens (Olympus). While photographing the cells, a general cell culture environment was created by constantly injecting 5% CO2 at a rate of 40-60 mL/min at 37°C using a controller (Live Cell Instrument). The migration distance and path of the cells were calculated using the "Track Object" application of MetaMorph software (Molecular Devices LLC). […]

[2] = tested on: SNU449-EV cells; test: Cell migration tracking, control cells; format: cell-based, human; details: SNU449-EV, 2.5, 5.0, or 10.0 µM, 17 hours (FIG. 7)
Experimental: as §1

[3] = molecular target: T1, HA-TM4SF5 obtained from Huh7KO-HA-TM4SF5 (Homo sapiens, UniProt O14894); test: Binding of 14C-labelled ST-5-002 to pulled-down HA-TM4SF5
T1 construct: expressed in transfected cells; host or cells: Huh7KO (TM4SF5 knockout Huh7) stably infected with pBabe-HA-TM4SF5 retrovirus; captured with anti-HA antibody
T1 sequence (O14894 1-197): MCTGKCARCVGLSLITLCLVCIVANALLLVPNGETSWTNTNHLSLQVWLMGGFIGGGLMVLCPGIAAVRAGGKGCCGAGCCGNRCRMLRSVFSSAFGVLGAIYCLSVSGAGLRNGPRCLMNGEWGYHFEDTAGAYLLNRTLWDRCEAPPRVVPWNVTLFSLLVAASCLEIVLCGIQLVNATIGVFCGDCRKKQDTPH
Experimental: For Huh7KO cells, stable cell lines were established by infecting with a retrovirus inducing the expression of pBabe-HA-EV or pBabe-HA-TM4SF5. Cell extracts were obtained, and extracts containing 0.2 or 0.25 mg of protein were reacted with an anti-HA antibody and HA-tagged TM4SF5, or with streptavidin agarose resin for Strep-PD-L1 or Strep-TM4SF5 at 4°C for 2 hours for pulldown. Subsequently, in the presence or absence of cold ST-5-002 (400 µM), the samples were treated with ^14C-labelled ST-5-002 (10 or 25 µM) and reacted at 4°C for 1 hour, after which radioactive isotope values were repeatedly measured using a TriCarb scintillation counter (PerkinElmer, Waltham, MA).
After culturing HEK293FT cells transfected with Strep-EV or Strep-TM4SF5 expression vectors, or Huh7KO cells stably expressing pBabe-HA-EV or pBabe-HA-TM4SF5, cell extracts were obtained. […] The pulled-down proteins were treated with ^14C-labelled ST-5-002 at various concentrations (10 nM, 100 nM, 1 µM, 5 µM, 10 µM, 50 µM) and reacted at 4°C for 1 hour, after which radioactive isotope values were repeatedly measured using a TriCarb scintillation counter (PerkinElmer, Waltham, MA). The EC50 was calculated by normalizing the average radioactive isotope value of TM4SF5 obtained through the measurements by dividing it by the average value of EV. […]

## COc1ccc(-c2cc(-c3ccc(NC(C)=O)cc3)no2)cc1 [ST-2-001, N-(4-(5-(4-methoxyphenyl)isoxazole-3-yl)phenyl)acetamide]
[1]
  migration of the cells: decreased according to the treatment with ST-2-001 in a concentration-dependent manner
[2]
  cell migration: did not change

## Cc1ccc(C(=O)Nc2ccc(-c3cc(-c4ccc(O)cc4)no3)cc2)cc1 [ST-5-002, N-(4-(3-(4-hydroxyphenyl)isoxazole-5-yl)phenyl)-4-methylbenzamide]
[3]; 14C-labelled ST-5-002, HA-TM4SF5, 4°C, 1 hour (FIG. 19b)
  EC50: 850 nM and 875 nM
[3]; simultaneous treatment with cold ST-5-002 (400 µM) (FIG. 19b)
  binding of 14C-labelled ST-5-002 to HA-TM4SF5: decreased
